System: 772245-204-R-J1-PDC complex spheroid growth
Experiment: Anticancer human tumor 772245-204-R-J1-PDC patient-derived rhabdomyosarcoma cell line growth inhibition [Asc]
Conditions: for IC50: curve of first compound; for viability, T/C: stronger effect = lower value
How it was run: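 Tumor cells were grown as complex spheroids with human endothelial cells (HUVEC) and human mesenchymal stem cells as stroma. Agents were tested alone and in combination, in half-log steps down from the clinical Cmax, or from 10 microM where Cmax was unknown.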

[1] = second compound 0.1 µM, first compound 0.0316 µM
[2] = second compound 0.1 µM, first compound 0.1 µM
[3] = second compound 0.1 µM, first compound 0.316 µM
[4] = second compound 0.1 µM, first compound 1 µM
[5] = second compound 0.1 µM, first compound 3.16 µM
[6] = second compound 0.1 µM, first compound 10 µM
[7] = second compound 0.316 µM, first compound 0.0316 µM
[8] = second compound 0.316 µM, first compound 0.1 µM
[9] = second compound 0.316 µM, first compound 0.316 µM
[10] = second compound 0.316 µM, first compound 1 µM
[11] = second compound 0.316 µM, first compound 3.16 µM
[12] = second compound 0.316 µM, first compound 10 µM
[13] = second compound 1 µM, first compound 0.0316 µM
[14] = second compound 1 µM, first compound 0.1 µM
[15] = second compound 1 µM, first compound 0.316 µM
[16] = second compound 1 µM, first compound 1 µM
[17] = second compound 1 µM, first compound 3.16 µM
[18] = second compound 1 µM, first compound 10 µM
[19] = second compound 3.16 µM, first compound 0.0316 µM
[20] = second compound 3.16 µM, first compound 0.1 µM
[21] = second compound 3.16 µM, first compound 0.316 µM
[22] = second compound 3.16 µM, first compound 1 µM
[23] = second compound 3.16 µM, first compound 3.16 µM
[24] = second compound 3.16 µM, first compound 10 µM
[25] = second compound 10 µM, first compound 0.0316 µM
[26] = second compound 10 µM, first compound 0.1 µM
[27] = second compound 10 µM, first compound 0.316 µM
[28] = second compound 10 µM, first compound 1 µM
[29] = second compound 10 µM, first compound 3.16 µM
[30] = second compound 10 µM, first compound 10 µM
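Further: compound exposure lasted seven days.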
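Wherever viability, T/C is given: 100% = DMSO vehicle control viability.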

In the case of `C=C(F)C(=O)N1CCN(c2nc(OCC3CCCN3C)nc3c2CCN(c2cccc4cccc(Cl)c24)C3)CC1CC#N` (stereo not given) + Cc1c(S(C)(=O)=O)c(-c2cc(F)cc(N3CCN(c4ccc(NS(=O)(=O)c5ccc(NC(CCN6CCC(C(=O)OCCCP(=O)(O)O)CC6)CSc6ccccc6)c(S(=O)(=O)C(F)(F)F)c5)cc4)CC3)c2)c(-c2ccc(Cl)cc2)n1C(C)C, the IC50 (second compound 0.1 µM) is reported as 1570 nM, the IC50 (second compound 0.316 µM) is reported as 772 nM and the IC50 (second compound 1 µM) is reported as under 31.6 nM. It also gave an IC50 (second compound 3.16 µM) of under 31.6 nM, an IC50 (second compound 10 µM) of under 31.6 nM and a viability, T/C [1] of 79%. For the same molecule, the viability, T/C [2] was 77.7%, the viability, T/C [3] was 72.6% and the viability, T/C [4] was 70.7%. For the same molecule, the viability, T/C [5] was 18.1%, the viability, T/C [6] was 0.14% and the viability, T/C [7] was 60.4%. The viability, T/C [8] was 65.2%, the viability, T/C [9] was 52.3% and the viability, T/C [10] was 47.8%. It also gave a viability, T/C [11] of 3.54%, a viability, T/C [12] of 0.12% and a viability, T/C [13] of 40%. It also gave a viability, T/C [14] of 45.9%, a viability, T/C [15] of 35.4% and a viability, T/C [16] of 30.9%. The viability, T/C [17] was 2.95%, the viability, T/C [18] was 0.1% and the viability, T/C [19] was 35.7%. For the same molecule, the viability, T/C [20] was 39.7%, the viability, T/C [21] was 45.7% and the viability, T/C [22] was 20.1%. The viability, T/C [23] was 1.47%, the viability, T/C [24] was 0.11% and the viability, T/C [25] was 43.3%. It also gave a viability, T/C [26] of 39.4%, a viability, T/C [27] of 37.3% and a viability, T/C [28] of 17.6%. The viability, T/C [29] was 1.02% and the viability, T/C [30] was 0.18%.

With `C=CC(=O)N1CCN(c2nc(=O)n(-c3c(C)ccnc3C(C)C)c3nc(-c4c(O)cccc4F)c(F)cc23)C(C)C1` (stereo not given) + Cc1c(S(C)(=O)=O)c(-c2cc(F)cc(N3CCN(c4ccc(NS(=O)(=O)c5ccc(NC(CCN6CCC(C(=O)OCCCP(=O)(O)O)CC6)CSc6ccccc6)c(S(=O)(=O)C(F)(F)F)c5)cc4)CC3)c2)c(-c2ccc(Cl)cc2)n1C(C)C the IC50 (second compound 0.1 µM) was 6320 nM, the IC50 (second compound 0.316 µM) was 2430 nM and the IC50 (second compound 1 µM) was under 31.6 nM. For the same molecule, the IC50 (second compound 3.16 µM) was 57.9 nM, the IC50 (second compound 10 µM) was under 31.6 nM and the viability, T/C [1] was 85%. The viability, T/C [2] was 79.7%, the viability, T/C [3] was 89.5% and the viability, T/C [4] was 67.7%. The viability, T/C [5] was 69.5%, the viability, T/C [6] was 38.9% and the viability, T/C [7] was 66.9%. For the same molecule, the viability, T/C [8] was 69.2%, the viability, T/C [9] was 68.2% and the viability, T/C [10] was 59.9%. The viability, T/C [11] was 47.1%, the viability, T/C [12] was 11.8% and the viability, T/C [13] was 49.9%. It also gave a viability, T/C [14] of 43%, a viability, T/C [15] of 44.9% and a viability, T/C [16] of 29.3%. It also gave a viability, T/C [17] of 15.1%, a viability, T/C [18] of 15.1% and a viability, T/C [19] of 41.8%. It also gave a viability, T/C [20] of 62.3%, a viability, T/C [21] of 37.9% and a viability, T/C [22] of 26.5%. For the same molecule, the viability, T/C [23] was 15.8%, the viability, T/C [24] was 5.71% and the viability, T/C [25] was 48.5%. It also gave a viability, T/C [26] of 41.3%, a viability, T/C [27] of 41.3% and a viability, T/C [28] of 30.6%. For the same molecule, the viability, T/C [29] was 13.5% and the viability, T/C [30] was 6.87%.

Work on `CCN1C(C(=O)NC23CCC(C(=O)O)(CC2)CC3)C(c2cccc(Cl)c2F)C2(C(=O)Nc3cc(Cl)ccc32)C12CCCCC2` (stereo not given) + Cc1c(S(C)(=O)=O)c(-c2cc(F)cc(N3CCN(c4ccc(NS(=O)(=O)c5ccc(NC(CCN6CCC(C(=O)OCCCP(=O)(O)O)CC6)CSc6ccccc6)c(S(=O)(=O)C(F)(F)F)c5)cc4)CC3)c2)c(-c2ccc(Cl)cc2)n1C(C)C yielded an IC50 (second compound 0.1 µM) of 1300 nM, an IC50 (second compound 0.316 µM) of 405 nM and an IC50 (second compound 1 µM) of 25.8 nM. It also gave an IC50 (second compound 3.16 µM) of under 9.49 nM, an IC50 (second compound 10 µM) of under 9.49 nM and a viability, T/C (second compound 0.1 µM, first compound 0.00949 µM) of 80%. It also gave a viability, T/C (second compound 0.1 µM, first compound 0.03 µM) of 84.5%, a viability, T/C (second compound 0.1 µM, first compound 0.0949 µM) of 71.5% and a viability, T/C (second compound 0.1 µM, first compound 0.3 µM) of 78.3%. The viability, T/C (second compound 0.1 µM, first compound 0.949 µM) was 57.6%, the viability, T/C (second compound 0.1 µM, first compound 3 µM) was 29.6% and the viability, T/C (second compound 0.316 µM, first compound 0.00949 µM) was 57.2%. The viability, T/C (second compound 0.316 µM, first compound 0.03 µM) was 65.5%, the viability, T/C (second compound 0.316 µM, first compound 0.0949 µM) was 67.2% and the viability, T/C (second compound 0.316 µM, first compound 0.3 µM) was 51.9%. It also gave a viability, T/C (second compound 0.316 µM, first compound 0.949 µM) of 36.6%, a viability, T/C (second compound 0.316 µM, first compound 3 µM) of 13.4% and a viability, T/C (second compound 1 µM, first compound 0.00949 µM) of 58.8%. For the same molecule, the viability, T/C (second compound 1 µM, first compound 0.03 µM) was 49.2%, the viability, T/C (second compound 1 µM, first compound 0.0949 µM) was 38% and the viability, T/C (second compound 1 µM, first compound 0.3 µM) was 29.3%. The viability, T/C (second compound 1 µM, first compound 0.949 µM) was 25.9%, the viability, T/C (second compound 1 µM, first compound 3 µM) was 15% and the viability, T/C (second compound 3.16 µM, first compound 0.00949 µM) was 32.1%. The viability, T/C (second compound 3.16 µM, first compound 0.03 µM) was 42%, the viability, T/C (second compound 3.16 µM, first compound 0.0949 µM) was 35.3% and the viability, T/C (second compound 3.16 µM, first compound 0.3 µM) was 21.6%. For the same molecule, the viability, T/C (second compound 3.16 µM, first compound 0.949 µM) was 17.2%, the viability, T/C (second compound 3.16 µM, first compound 3 µM) was 9.63% and the viability, T/C (second compound 10 µM, first compound 0.00949 µM) was 46.4%. It also gave a viability, T/C (second compound 10 µM, first compound 0.03 µM) of 48.7%, a viability, T/C (second compound 10 µM, first compound 0.0949 µM) of 38.3% and a viability, T/C (second compound 10 µM, first compound 0.3 µM) of 35.2%. The viability, T/C (second compound 10 µM, first compound 0.949 µM) was 22.1% and the viability, T/C (second compound 10 µM, first compound 3 µM) was 4.04%.
